This is an account of results in patent US9018214B2, “Bicyclic heterocycle compounds and their uses in therapy” (Astex Therapeutics Limited, priority 2011, dated 2015).

Structures are written as SMILES. Where a name gives a salt, the structure may show the parent alone. Read-outs that look alike come from different tables or passages of the source.

As usually defined, the IC50 is the concentration that inhibits the measured activity by half. As a reminder, the EC50 is the concentration giving half of the maximal effect.

Assay [1] deals with BIR3 domain of human XIAP (residues 252-350) (Homo sapiens (Human), UniProt P98170). The assay can be described thus: XIAP in vitro competitive displacement binding assay (fluorescence polarization). As to conditions: for IC50: read-out: IC50 or PI Xiap: IC50; for inhibition at 0.04 µM: 1 h, read-out: IC50 or PI Xiap: PI. On the technique in general: Polarisation of emitted light reports the rotation of a fluorescent probe.

Assay [2] addresses BIR3 domain of human cIAP-1 (residues 267-363) (Homo sapiens (Human), UniProt Q13490). Put plainly: cIAP-1 in vitro competitive displacement binding assay (fluorescence polarization; Probe A AVPIK(5&6FAM)-amide or Probe B AbuRPFK(5&6FAM)-amide). As to conditions: for inhibition at […] / inhibition at 0.01 µM: 3 h, read-out: IC50 or PI cIAP1: PI; for inhibition at […]: @ 0.012 μM.

For assay [3], the system named is EVSA-T (human breast carcinoma). The assay can be described thus: Anti-proliferative activity, Alamar Blue assay, EVSA-T. It counts as cell-based. The following applies: Homo sapiens, EVSA-T.
The mark [4] stands for this setting: 72 hours, Alamar Blue, read-out: EVSA-T prolif (EC50).
The mark [5] stands for this setting: Probe B AbuRPFK(5&6FAM)-amide, read-out: IC50 or PI cIAP1: IC50.
Setting [6] is: read-out: IC50 or PI cIAP1: IC50.
Where [7] appears, read: 72 h, read-out: EVSA-T prolif (EC50).

For the molecule `C[C@@H]1CN(CC(=O)N2CCc3cc(F)c(S(=O)(=O)c4ccccc4)cc32)CCN1` [Example 41, 1-(6-Benzenesulfonyl-5-fluoro-2,3-dihydro-indol-1-yl)-2-((R)-3-methyl-piperazin-1-yl)-ethanone], the IC50 in assay [1] amounted to 470 nM; in assay [2] (Probe A AVPIK(5&6FAM)-amide, read-out: IC50 or PI cIAP1: IC50) it was 1300 nM. The concentration for a half-maximal effect (EC50) in assay [3] (setting [4]) stood at 5700 nM.
As for `COC[C@H]1CN[C@H](C)CN1CC(=O)N1CC(C)(C)c2cnc(C(F)(F)c3ccccc3)cc21` [Example 146, 1-{6-[Difluoro(phenyl)methyl]-3,3-dimethyl-1H,2H,3H-pyrrolo[3,2-c]pyridin-1-yl}-2-[(2R,5R)-2-(methoxymethyl)-5-methylpiperazin-1-yl]ethan-1-one hydrochloride], the half-maximal inhibitory concentration (IC50) turned out to be 75 nM in assay [1] and 17 nM in assay [2] (setting [5]). In assay [3] (setting [4]), the 50% effective concentration (EC50) was 640 nM.
Turning to `C[C@@H]1CN(CC(=O)N2CC(C)(C)c3cnc(C(F)(F)C4CC4)cc32)[C@@H](CN2CCCC2=O)CN1` [Example 212, 1-{[(2R,5R)-1-{2-[6-(Cyclopropyldifluoromethyl)-3,3-dimethyl-1H,2H,3H-pyrrolo[3,2-c]pyridin-1-yl]-2-oxoethyl}-5-methylpiperazin-2-yl]methyl}pyrrolidin-2-one hydrochloride], the IC50 is 45 nM in assay [1], below 1000 nM in assay [2] and 14 nM in assay [2] (setting [5]). Moreover, in assay [3] (setting [4]), the EC50 came to 270 nM.
In the case of `C[C@@H]1CN(CC(=O)N2CC(C)(C)c3cnc(C(F)(F)c4ccccc4)cc32)[C@@H](CN2CCN(C)C2=O)CN1` [Example 197, 1-{[(2R,5R)-1-(2-{6-[Difluoro(phenyl)methyl]-3,3-dimethyl-1H,2H,3H-pyrrolo[3,2-c]pyridin-1-yl}-2-oxoethyl)-5-methylpiperazin-2-yl]methyl}-3-methylimidazolidin-2-one hydrochloride], the inhibition at 0.04 µM in assay [1] was 68%. In addition, the inhibition at […] in assay [2] (Probe B) was 76%. Moreover, in assay [3] (setting [4]), the concentration giving a half-maximal response (EC50) turned out to be 49 nM.
For `COC[C@H]1CN[C@H](C)CN1CC(=O)N1CC(C)(C)c2cnc(C3=CCCC3)cc21` [Example 90, 1-[6-(Cyclopent-1-en-1-yl)-3,3-dimethyl-1H,2H,3H-pyrrolo[3,2-c]pyridin-1-yl]-2-[(2R,5R)-2-(methoxymethyl)-5-methylpiperazin-1-yl]ethan-1-one, hydrochloride salt], the IC50 was found to be 270 nM in assay [1] and 79 nM in assay [2] (setting [5]). Also, in assay [3] (setting [4]), the EC50 is 330 nM.
Turning to `CC(C)CC(F)(F)c1cc2c(cn1)C(C)(C)CN2C(=O)CN1C[C@@H](C)NC[C@@H]1CN1CCOCC1` [Example 229, 1-[6-(1,1-Difluoro-3-methylbutyl)-3,3-dimethyl-1H,2H,3H-pyrrolo[3,2-c]pyridin-1-yl]-2-[(2R,5R)-5-methyl-2-(morpholin-4-ylmethyl)piperazin-1-yl]ethan-1-one hydrochloride], the inhibition at 0.04 µM in assay [1] worked out at 53%. The inhibition at […] in assay [2] (Probe B) came out at 73%. In assay [3] (setting [4]), the EC50 was found to be 38 nM.
With `COC[C@H]1CN[C@H](C)CN1CC(=O)N1CC(C)(C)c2c[n+]([O-])c(Cc3ccc(F)cc3F)cc21` [Example 166, 6-[(2,4-Difluorophenyl)methyl]-1-{2-[(2R,5R)-2-(methoxymethyl)-5-methylpiperazin-1-yl]acetyl}-3,3-dimethyl-1H,2H,3H-1,5λ^5-pyrrolo[3,2-c][1λ^5]pyridin-5-one hydrochloride], the IC50 in assay [1] worked out at 150 nM. Further, in assay [2] (Probe B), the inhibition at […] stood at 76%. The EC50 in assay [3] (setting [4]) stood at 130 nM.
For `COC[C@H]1CN[C@H](C)CN1CC(=O)N1C[C@@](C)(c2cc(C)no2)c2ccc(Cc3ccccc3)cc21` [Example 175, 1-[(3S)-6-Benzyl-3-methyl-3-(3-methyl-1,2-oxazol-5-yl)-2,3-dihydro-1H-indol-1-yl]-2-[(2R,5R)-2-(methoxymethyl)-5-methylpiperazin-1-yl]ethan-1-one hydrochloride], the IC50 was 110 nM in assay [1], below 1000 nM in assay [2] and 11 nM in assay [2] (setting [5]). Besides, the EC50 in assay [3] (setting [4]) amounted to 200 nM.
Consider `COC[C@H]1CN[C@H](C)CN1CC(=O)N1CC(C)(C)c2ccc(S(=O)(=O)Cc3ccccc3)cc21` [Example 70, 1-(3,3-Dimethyl-6-phenylmethane-sulfonyl-2,3-dihydro-indol-1-yl)-2-((2R,5R)-2-methoxymethyl-5-methyl-piperazin-1-yl)-ethanone dihydrochloride salt], for which the results for the concentration for half-maximal inhibition (IC50) in assay [1] and in assay [2] (setting [6]) were 380 nM and 820 nM, respectively. Moreover, the EC50 was below 10000 nM in assay [3] (72 h, read-out: EC50, inhibition of cell growth) and 7900 nM in assay [3] (setting [7]).
As for `C[C@@H]1CN(CC(=O)N2CC(C)(C)c3ncc(C(C)(F)F)cc32)[C@@H](CN2CCN(C)C(=O)C2)CN1` [Example 228, 4-{[(2R,5R)-1-{2-[6-(1,1-Difluoroethyl)-3,3-dimethyl-1H,2H,3H-pyrrolo[3,2-b]pyridin-1-yl]-2-oxoethyl}-5-methylpiperazin-2-yl]methyl}-1-methylpiperazin-2-one dihydrochloride], the figures for the IC50 in assay [1], in assay [2] and in assay [2] (setting [6]) were 99 nM, below 1000 nM and 24 nM, respectively. In addition, the EC50 in assay [3] (setting [7]) came to 680 nM.
As to `COC[C@H]1CN[C@H](C)CN1CC(=O)N1CC(C)(C)c2cnc(C(C)c3ccccc3)cc21` (stereo partly drawn) [Example 87, 1-[3,3-Dimethyl-6-(1-phenylethyl)-1H,2H,3H-pyrrolo[3,2-c]pyridin-1-yl]-2-[(2R,5R)-2-(methoxymethyl)-5-methylpiperazin-1-yl]ethan-1-one, hydrochloride salt], the IC50 in assay [1] was 240 nM; in assay [2], below 1000 nM; in assay [2] (setting [5]), 24 nM. In addition, the 50% effective concentration (EC50) in assay [3] (setting [4]) came to 510 nM.
For `C[C@@H]1CN(CC(=O)N2CC(C)(C)c3cnc(Cc4ccccc4)cc32)[C@@H](C(=O)N2CCCC2)CN1` [Example 131, 1-{6-Benzyl-3,3-dimethyl-1H,2H,3H-pyrrolo[3,2-c]pyridin-1-yl}-2-[(2R,5R)-5-methyl-2-[(pyrrolidin-1-yl)carbonyl]piperazin-1-yl]ethan-1-one dihydrochloride], the IC50 in assay [1] was 130 nM. The inhibition at 0.01 µM in assay [2] worked out at 63%. In addition, the EC50 in assay [3] (setting [7]) worked out at 88 nM.
`C[C@@H]1CN(CC(=O)N2CC(C)(C)c3cnc(Cc4ccccc4F)cc32)[C@@H](CN2CCCC2=O)CN1` [Example 242, 1-{[(2R,5R)-1-(2-{6-[(2-Fluorophenyl)methyl]-3,3-dimethyl-1H,2H,3H-pyrrolo[3,2-c]pyridin-1-yl}-2-oxoethyl)-5-methylpiperazin-2-yl]methyl}pyrrolidin-2-one hydrochloride]: in assay [1], the inhibition at 0.04 µM is 65%. Also, the inhibition at […] in assay [2] (Probe B) amounted to 92%. In addition, the EC50 in assay [3] (setting [4]) was 13 nM.
Regarding `COC[C@H]1CN[C@H](C)CN1CC(=O)N1CC(C)(C)c2cnc(C3CCCC3)cc21` [Example 92, 1-{6-Cyclopentyl-3,3-dimethyl-1H,2H,3H-pyrrolo[3,2-c]pyridin-1-yl}-2-[(2R,5R)-2-(methoxymethyl)-5-methylpiperazin-1-yl]ethan-1-one, hydrochloride salt], the IC50 in assay [1] came to 1200 nM; in assay [2] (setting [5]), 270 nM. In addition, in assay [3] (setting [4]), the concentration giving a half-maximal response (EC50) turned out to be 4800 nM.
In the case of `CCS(=O)(=O)c1ccc2c(c1)N(C(=O)CN1C[C@@H](C)NC[C@@H]1COC)CC2(C)C` [Example 59, 1-(6-Ethane-sulfonyl-3,3-dimethyl-2,3-dihydro-indol-1-yl)-2-((2R,5R)-2-methoxymethyl-5-methyl-piperazin-1-yl)-ethanone dihydrochloride salt], the concentration for half-maximal inhibition (IC50) in assay [1] turned out to be 310 nM; in assay [2] (setting [6]), 500 nM. For the same molecule, the EC50 in assay [3] (setting [7]) was 9700 nM.
Take `C[C@@H]1CN(CC(=O)N2C[C@@](C)(c3ccccc3)c3ccc(C#N)cc32)[C@@H](C(=O)N2CCOCC2)CN1` [Example 152, (3S)-3-Methyl-1-{2-[(2R,5R)-5-methyl-2-[(morpholin-4-yl)carbonyl]piperazin-1-yl]acetyl}-3-phenyl-2,3-dihydro-1H-indole-6-carbonitrile]: the half-maximal inhibitory concentration (IC50) in assay [1] was found to be 65 nM; in assay [2] (setting [5]) it was 110 nM. Further, in assay [3] (setting [4]), the EC50 worked out at 3700 nM.
With `COC[C@H]1CN[C@H](C)CN1CC(=O)N1CC(C)(C)c2cnc(Cc3ccccc3F)cc21` [Example 77, 1-{6-[(2-Fluorophenyl)methyl]-3,3-dimethyl-1H,2H,3H-pyrrolo[3,2-c]pyridin-1-yl}-2-[(2R,5R)-2-(methoxy-methyl)-5-methyl-piperazin-1-yl]ethan-1-one], the IC50 came to 170 nM in assay [1] and 9 nM in assay [2] (setting [5]). In assay [3] (setting [4]), the EC50 came to 160 nM.
Consider `COC[C@H]1CN[C@H](C)CN1CC(=O)N1CC(C)(C)c2cnc(Cc3ccc(F)cc3)cc21` [Example 88, 1-{6-[(4-Fluoro-phenyl)methyl]-3,3-dimethyl-1H,2H,3H-pyrrolo[3,2-c]pyridin-1-yl}-2-[(2R,5R)-2-(methoxy-methyl)-5-methyl-piperazin-1-yl]ethan-1-one, hydrochloride salt], for which the IC50 in assay [1] was found to be 170 nM. In addition, in assay [2] (Probe B, @ 0.01 μM), the inhibition at 0.01 µM amounted to 84%. Also, in assay [3] (setting [4]), the EC50 was determined as 40 nM.
Turning to `C[C@@H]1CN(CC(=O)N2CC(C)(C)c3cnc(Cc4ccccc4)cc32)[C@@H](C(=O)N2CCCCC2)CN1` [Example 133, 1-{6-Benzyl-3,3-dimethyl-1H,2H,3H-pyrrolo[3,2-c]pyridin-1-yl}-2-[(2R,5R)-5-methyl-2-[(piperidin-1-yl)carbonyl]piperazin-1-yl]ethan-1-one dihydrochloride], the concentration for half-maximal inhibition (IC50) in assay [1] stood at 91 nM. The inhibition at 0.01 µM in assay [2] turned out to be 71%. The half-maximal effective concentration (EC50) in assay [3] (setting [7]) turned out to be 110 nM.
